Experimental data taken from patent US10906940B2, “Antimicrobial peptides, pharmaceutical compositions, and methods of use thereof” (priority 2014, dated 2021).
Values after ≈ are worked out from the molar mass of the structure shown. Where a SMILES comes first, the peptide text is derived from it. Bridges are numbered along the chain shown (N, C = ends). [ ]: non-standard residue; d: D form. The star is where a group is joined. Pentadecanoyl = CCCCCCCCCCCCCCC(=O)*; Tridecanoyl = CCCCCCCCCCCCC(=O)*; Undecanoyl = CCCCCCCCCCC(=O)*; dOrn = NCCC[C@@H](N)C(=O)O

What was measured:
[1] = tested on: E. coli CVM 40136 (tem 52b); format: cell-based, Escherichia coli
Excerpt: (§1) The same MIC assay as in Example 6 was used to determine the antimicrobial susceptibility of Compound A, L-form (FIG. 15), and several variants. One variant was Compound A, D-form, with D-Lysine at position 7. Compound B is a variant in the fatty acid chain, with a fatty acid chain composition of C15H29O, and having D-Lys at position 7. Compound C is a variant in the fatty acid chain with a fatty acid chain composition of C11H21O, and having D-Lys at position 7. Variant D is a sequence variant with Phe at position 6 of the cyclic peptide, and having D-Lys at position 7. All variants were chemically synthesized.

E. coli CVM40146 (vim-1) = format: cell-based, Escherichia coli
Excerpt: as §1

[2] = tested on: E. coli CVM 40147 (vim-2); format: cell-based, Escherichia coli
Excerpt: as §1

[3] = tested on: E. coli CVM 40126 (oxa-1); format: cell-based, Escherichia coli
Excerpt: as §1

[4] = tested on: E. coli CVM 40133 (ctx-m-14); format: cell-based, Escherichia coli
Excerpt: as §1

E. coli CVM40148 (veb-1) = format: cell-based, Escherichia coli
Excerpt: as §1

E. coli CVM 15104 (shv3) = format: cell-based, Escherichia coli
Excerpt: as §1

E. coli CVM 15100 (mir1) = format: cell-based, Escherichia coli
Excerpt: as §1

[5] = tested on: E. coli CVM 40134 (ctx-m-15); format: cell-based, Escherichia coli
Excerpt: as §1

[6] = tested on: E. coli CVM 40132 (ctx-m-9); format: cell-based, Escherichia coli
Excerpt: as §1

[7] = tested on: E. coli CVM 40139 (fox-1); format: cell-based, Escherichia coli
Excerpt: as §1

[8] = tested on: E. coli CVM 40141 (imp-1); format: cell-based, Escherichia coli
Excerpt: as §1

[9] = tested on: E. coli CVM 40138 (LCR-1); format: cell-based, Escherichia coli
Excerpt: as §1

E. coli CVM 15103 (tem2) = format: cell-based, Escherichia coli
Excerpt: as §1

[10] = tested on: E. coli CVM 40130 (oxa-9); format: cell-based, Escherichia coli
Excerpt: as §1

[11] = tested on: Klebsiella pneumoniae SBJ-9388; conditions: SBJ-9388
P. aeruginosa ATCC-27853 = conditions: ATCC-27853
[12] = tested on: Enterobacter cloacae SBJ-9222; conditions: SBJ-9222
[13] = tested on: Klebsiella pneumoniae SBJ-9149; conditions: SBJ-9149
E. coli ATCC 25853 = conditions: ATCC 25853
[14] = tested on: Enterobacter cloacae SBJ-7612; conditions: SBJ-7612
[15] = tested on: Listeria monocytogenes R2-583
[16] = tested on: Klebsiella pneumoniae SBJ-9483; conditions: SBJ-9483
[17] = tested on: Enterobacter sakazakii E784
[18] = tested on: carbapenem-resistant (CRE) strains and MRSA strains; experiment: Broth microdilution MIC, summary of spectrum; format: cell-based

`CCCCCCCCCCCCCCC(=O)N[C@H](CCCN)C(=O)N[C@H](C(=O)N[C@@H]1C(=O)N[C@H](CCCN)C(=O)N[C@@H](CO)C(=O)N[C@@H](Cc2ccc(O)cc2)C(=O)N[C@H](CCCCN)C(=O)N[C@H](CO)C(=O)N[C@@H]([C@@H](C)CC)C(=O)N2CCC[C@H]2C(=O)N[C@@H]([C@@H](C)CC)C(=O)N2CCC[C@H]2C(=O)N[C@@H]([C@@H](C)CC)C(=O)O[C@@H]1C)C(C)C` [Compound B] (Pentadecanoyl-[dOrn]VT[dOrn]SY[dK][dS]IPIPI; ester 3-C; N-terminus assumed) showed an MIC [1] of 8 µg/mL (≈ 4.84 µM), an MIC (E. coli CVM40146 (vim-1)) of 8 µg/mL (≈ 4.84 µM) and an MIC [2] of 16 µg/mL (≈ 9.68 µM). It also gave an MIC [3] of 4 µg/mL (≈ 2.42 µM), an MIC [4] of 16 µg/mL (≈ 9.68 µM) and an MIC (E. coli CVM40148 (veb-1)) of 8 µg/mL (≈ 4.84 µM). It also gave an MIC (E. coli CVM 15104 (shv3)) of 16 µg/mL (≈ 9.68 µM), an MIC (E. coli CVM 15100 (mir1)) of 16 µg/mL (≈ 9.68 µM) and an MIC [5] of 8 µg/mL (≈ 4.84 µM). The MIC [6] was 16 µg/mL (≈ 9.68 µM), the MIC [7] was 16 µg/mL (≈ 9.68 µM) and the MIC [8] was 16 µg/mL (≈ 9.68 µM). The MIC [9] was 8 µg/mL (≈ 4.84 µM), the MIC (E. coli CVM 15103 (tem2)) was 8 µg/mL (≈ 4.84 µM) and the MIC [10] was 8 µg/mL (≈ 4.84 µM).

Work on `CCCCCCCCCCCCC(=O)N[C@H](CCCN)C(=O)N[C@H](C(=O)N[C@@H]1C(=O)N[C@H](CCCN)C(=O)N[C@@H](CO)C(=O)N[C@@H](Cc2ccc(O)cc2)C(=O)N[C@H](CCCCN)C(=O)N[C@H](CO)C(=O)N[C@@H]([C@@H](C)CC)C(=O)N2CCC[C@H]2C(=O)N[C@@H]([C@@H](C)CC)C(=O)N2CCC[C@H]2C(=O)N[C@@H]([C@@H](C)CC)C(=O)O[C@@H]1C)C(C)C` [Compound A D-form] (Tridecanoyl-[dOrn]VT[dOrn]SY[dK][dS]IPIPI; ester 3-C) yielded an MIC [1] of 16 µg/mL (≈ 9.85 µM), an MIC (E. coli CVM40146 (vim-1)) of 8 µg/mL (≈ 4.93 µM) and an MIC [2] of 16 µg/mL (≈ 9.85 µM). For the same molecule, the MIC [3] was 8 µg/mL (≈ 4.93 µM), the MIC [4] was 16 µg/mL (≈ 9.85 µM) and the MIC (E. coli CVM40148 (veb-1)) was 8 µg/mL (≈ 4.93 µM). For the same molecule, the MIC (E. coli CVM 15104 (shv3)) was 8 µg/mL (≈ 4.93 µM), the MIC (E. coli CVM 15100 (mir1)) was 8 µg/mL (≈ 4.93 µM) and the MIC [5] was 8 µg/mL (≈ 4.93 µM). The MIC [6] was 8 µg/mL (≈ 4.93 µM), the MIC [7] was 8 µg/mL (≈ 4.93 µM) and the MIC [8] was 16 µg/mL (≈ 9.85 µM). For the same molecule, the MIC [9] was 8 µg/mL (≈ 4.93 µM), the MIC (E. coli CVM 15103 (tem2)) was 8 µg/mL (≈ 4.93 µM) and the MIC [10] was 8 µg/mL (≈ 4.93 µM).

`CCCCCCCCCCCCC(=O)N[C@H](CCCN)C(=O)N[C@H](C(=O)N[C@@H]1C(=O)N[C@H](CCCN)C(=O)N[C@@H](CO)C(=O)N[C@@H](Cc2ccccc2)C(=O)N[C@H](CCCCN)C(=O)N[C@H](CO)C(=O)N[C@@H]([C@@H](C)CC)C(=O)N2CCC[C@H]2C(=O)N[C@@H]([C@@H](C)CC)C(=O)N2CCC[C@H]2C(=O)N[C@@H]([C@@H](C)CC)C(=O)O[C@@H]1C)C(C)C` [Variant D] (Tridecanoyl-[dOrn]VT[dOrn]SF[dK][dS]IPIPI; ester 3-C; N-terminus assumed) was tested, and the MIC [1] was 16 µg/mL (≈ 9.95 µM), the MIC (E. coli CVM40146 (vim-1)) was 8 µg/mL (≈ 4.97 µM) and the MIC [2] was 16 µg/mL (≈ 9.95 µM). It also gave an MIC [3] of 8 µg/mL (≈ 4.97 µM), an MIC [4] of 8 µg/mL (≈ 4.97 µM) and an MIC (E. coli CVM40148 (veb-1)) of 8 µg/mL (≈ 4.97 µM). For the same molecule, the MIC (E. coli CVM 15104 (shv3)) was 16 µg/mL (≈ 9.95 µM), the MIC (E. coli CVM 15100 (mir1)) was 8 µg/mL (≈ 4.97 µM) and the MIC [5] was 8 µg/mL (≈ 4.97 µM). For the same molecule, the MIC [6] was 8 µg/mL (≈ 4.97 µM), the MIC [7] was 8 µg/mL (≈ 4.97 µM) and the MIC [8] was 16 µg/mL (≈ 9.95 µM). It also gave an MIC [9] of 8 µg/mL (≈ 4.97 µM), an MIC (E. coli CVM 15103 (tem2)) of 8 µg/mL (≈ 4.97 µM) and an MIC [10] of 8 µg/mL (≈ 4.97 µM).

`CCCCCCCCCCC(=O)N[C@H](CCCN)C(=O)N[C@H](C(=O)N[C@@H]1C(=O)N[C@H](CCCN)C(=O)N[C@@H](CO)C(=O)N[C@@H](Cc2ccc(O)cc2)C(=O)N[C@H](CCCCN)C(=O)N[C@H](CO)C(=O)N[C@@H]([C@@H](C)CC)C(=O)N2CCC[C@H]2C(=O)N[C@@H]([C@@H](C)CC)C(=O)N2CCC[C@H]2C(=O)N[C@@H]([C@@H](C)CC)C(=O)O[C@@H]1C)C(C)C` [Compound C] (Undecanoyl-[dOrn]VT[dOrn]SY[dK][dS]IPIPI; ester 3-C; N-terminus assumed) was tested, and the MIC [1] was 8 µg/mL (≈ 5.01 µM), the MIC (E. coli CVM40146 (vim-1)) was 8 µg/mL (≈ 5.01 µM) and the MIC [2] was 16 µg/mL (≈ 10 µM). For the same molecule, the MIC [3] was 8 µg/mL (≈ 5.01 µM), the MIC [4] was 8 µg/mL (≈ 5.01 µM) and the MIC (E. coli CVM40148 (veb-1)) was 8 µg/mL (≈ 5.01 µM). It also gave an MIC (E. coli CVM 15104 (shv3)) of 8 µg/mL (≈ 5.01 µM), an MIC (E. coli CVM 15100 (mir1)) of 8 µg/mL (≈ 5.01 µM) and an MIC [5] of 8 µg/mL (≈ 5.01 µM). It also gave an MIC [6] of 8 µg/mL (≈ 5.01 µM), an MIC [7] of 8 µg/mL (≈ 5.01 µM) and an MIC [8] of 32 µg/mL (≈ 20 µM). It also gave an MIC [9] of 8 µg/mL (≈ 5.01 µM), an MIC (E. coli CVM 15103 (tem2)) of 8 µg/mL (≈ 5.01 µM) and an MIC [10] of 8 µg/mL (≈ 5.01 µM).

Work on `CCCCCCCCCCCCC(=O)N[C@H](CCCN)C(=O)N[C@H](C(=O)N[C@@H]1C(=O)N[C@H](CCCN)C(=O)N[C@@H](CO)C(=O)N[C@@H](Cc2ccc(O)cc2)C(=O)N[C@@H](CCCCN)C(=O)N[C@H](CO)C(=O)N[C@@H]([C@@H](C)CC)C(=O)N2CCC[C@H]2C(=O)N[C@@H]([C@@H](C)CC)C(=O)N2CCC[C@H]2C(=O)N[C@@H]([C@@H](C)CC)C(=O)O[C@@H]1C)C(C)C` [Compound A L-form] (Tridecanoyl-[dOrn]VT[dOrn]SYK[dS]IPIPI; ester 3-C) yielded an MIC [11] of 4 µg/mL (≈ 2.46 µM), an MIC (P. aeruginosa ATCC-27853) of 8 µg/mL (≈ 4.93 µM) and an MIC (Salmonella Newport #17) of 16 µg/mL (≈ 9.85 µM). The MIC (P. aeruginosa -03) was 8 µg/mL (≈ 4.93 µM), the MIC (P. aeruginosa SBJ-10884) was 4 µg/mL (≈ 2.46 µM) and the MIC (S. aureus ATCC 29213) was 4 µg/mL (≈ 2.46 µM). The MIC (P. aeruginosa -01) was 8 µg/mL (≈ 4.93 µM), the MIC (S. aureus ATCC25923) was 2 µg/mL (≈ 1.23 µM) and the MIC [12] was 8 µg/mL (≈ 4.93 µM). The MIC [13] was 4 µg/mL (≈ 2.46 µM), the MIC (E. coli ATCC 25853) was 4 µg/mL (≈ 2.46 µM) and the MIC [14] was 4 µg/mL (≈ 2.46 µM). For the same molecule, the MIC [15] was 2 µg/mL (≈ 1.23 µM), the MIC [1] was 8 µg/mL (≈ 4.93 µM) and the MIC (E. coli CVM40146 (vim-1)) was 8 µg/mL (≈ 4.93 µM). It also gave an MIC [2] of 16 µg/mL (≈ 9.85 µM), an MIC [3] of 4 µg/mL (≈ 2.46 µM) and an MIC [4] of 8 µg/mL (≈ 4.93 µM). The MIC (E. coli CVM40148 (veb-1)) was 8 µg/mL (≈ 4.93 µM), the MIC (E. coli CVM 15104 (shv3)) was 8 µg/mL (≈ 4.93 µM) and the MIC (E. coli CVM 15100 (mir1)) was 8 µg/mL (≈ 4.93 µM). It also gave an MIC [5] of 8 µg/mL (≈ 4.93 µM), an MIC [6] of 8 µg/mL (≈ 4.93 µM) and an MIC [7] of 8 µg/mL (≈ 4.93 µM). For the same molecule, the MIC [8] was 32 µg/mL (≈ 19.7 µM), the MIC [9] was 8 µg/mL (≈ 4.93 µM) and the MIC (E. coli CVM 15103 (tem2)) was 8 µg/mL (≈ 4.93 µM). It also gave an MIC [10] of 8 µg/mL (≈ 4.93 µM), an MIC (P. aeruginosa -02) of 8 µg/mL (≈ 4.93 µM) and an MIC (E. faecalis ATCC 29212) of 4 µg/mL (≈ 2.46 µM). It also gave an MIC [16] of 4 µg/mL (≈ 2.46 µM), an MIC (P. aeruginosa SBJ-10886) of 4 µg/mL (≈ 2.46 µM) and an MIC [17] of 8 µg/mL (≈ 4.93 µM). For the same molecule, the MIC (E. coli O157: H7 EDL933) was 4 µg/mL (≈ 2.46 µM), the “sensitivity of bacteria compared with paenibacterin of US2013/0164317” value ([18]; comparison in words) was “much greater sensitivity” and the “activity against CRE strains and MRSA strains” value ([18]; summary of Table 6) was “very potent activity”.
